Measured values published in patent US5250518A, “O-methyl derivatives of azithromycin A” (priority 1990, dated 1993).
Converted amounts (≈) assume the structure as drawn.

Tests used:
[1] = tested on: gram-positive and gram-negative test bacteria and clinical isolates; assay: Preliminary antibacterial in vitro activity, tube dilution method (Tables 1 and 2, summary); type: cell-based; settings: versus erythromycin A
Experimental: (§1) O-methyl derivatives of azithromycin A of the formulae (Ii)-(Il) and their pharmaceutically acceptable addition salts have a potent antimicrobial activity. The preliminary antibacterial in vitro activity of 6-O-methyl-azithromycin A (Ii) was determined on a series of gram-positiveand gram-negative test bacteria and clinical isolates in comparison with erythromycin A. The assessment was performed by the "tube dilution" method. In the investigation there were used 24-hours cultures in "brain hearth bouillon" of standard strains and freshly isolated strains from a clinical sample.

[2] = tested on: Streptococcus faecalis ATCC-8043; assay: Antibacterial in vitro activity, tube dilution method (Table 1); type: cell-based; settings: Enterococcus faecalis, ATCC8043, Brain hearth bouillon, 24 hours, 37° C.
Experimental: as §1
(§2) Substrate: Brain hearth bouillon
(§3) Incubation: 24 hours, 37° C.
(§4) MIC: Minimal Inhibitory Concentration (μg/mL)
(§5) MBC: Minimal Bactericidal Concentration (μg/mL)

[3] = tested on: Staphilococcus aureus ATCC 6538-P; assay: as above; type: cell-based; settings: Brain hearth bouillon, 24 hours, 37° C.
Experimental: as §1, §2, §3, §4, §5

[4] = tested on: Pseudomonas aeruginosa NCTC-10490; assay: as above; type: cell-based; settings: NCTC10490, Brain hearth bouillon, 24 hours, 37° C.
Experimental: as §1, §2, §3, §4, §5

[5] = tested on: Klebsiella pneumoniae NCTC-10499; assay: as above; type: cell-based; settings: NCTC10499, Brain hearth bouillon, 24 hours, 37° C.
Experimental: as §1, §2, §3, §4, §5

ATCC 6538P = assay: Antibacterial in vitro activity in comparison with azithromycin (Table 3); type: cell-based, Staphilococcus aureus; settings: for MIC: Brain hearth Bouillon, 24-48 hours, 37° C., inoculum 10^-5 -10^-6 cfu/mL, read-out: MIC
From the text: (§6) In Table 3 there are represented in vitro tests of 6-O-methyl- (Ii), 6,11-di-O-methyl- (Ij), 11-O-methyl- (Ik) and 6,11,4"-tri-O-methyl-azithromycin A (II) in comparison with azithromycin.

[6] = Biological activity (1 mg contains μg of azithromycin); settings: per 1 mg of (Ii)
[7] = tested on: Streptococcus faecalis 10390; assay: Antibacterial in vitro activity against clinical isolates, tube dilution method (Table 2); type: cell-based; settings: Enterococcus faecalis, clinical isolate, Brain hearth bouillon, 24 hours, 37° C.
Experimental: as §1, §2, §3, §4
(§7) MBC: Minimal Bactericidal Concentation (μg/mL)

[8] = tested on: Staphylococcus aureus 10099; assay: as above; type: cell-based; settings: clinical isolate, Brain hearth bouillon, 24 hours, 37° C.
Experimental: as §1, §2, §3, §4, §7

[9] = tested on: Staphylococcus aureus 10097; assay: as above; type: cell-based; settings: clinical isolate, Brain hearth bouillon, 24 hours, 37° C.
Experimental: as §1, §2, §3, §4, §7

[10] = tested on: Streptococcus pneumoniae 4050; assay: as above; type: cell-based; settings: clinical isolate, Brain hearth bouillon, 24 hours, 37° C.
Experimental: as §1, §2, §3, §4, §7

[11] = tested on: Staphylococcus saprophyticus 3947; assay: as above; type: cell-based; settings: clinical isolate, Brain hearth bouillon, 24 hours, 37° C.
Experimental: as §1, §2, §3, §4, §7

[12] = tested on: Haemophylus influenzae 4028; assay: as above; type: cell-based; settings: clinical isolate, Brain hearth bouillon, 24 hours, 37° C.
Experimental: as §1, §2, §3, §4, §7

Sarcina lutea ATCC-9341 = assay: Antibacterial in vitro activity, tube dilution method (Table 1); type: cell-based; settings: Micrococcus luteus, ATCC9341, Brain hearth bouillon, 24 hours, 37° C.
Experimental: as §1, with “The” for “O-methyl derivatives of azithromycin A of the formulae (Ii)-(Il) and their pharmaceutically acceptable addition salts have a potent antimicrobial activity. The”

[13] = tested on: Escherichia coli ATCC 10536; assay: as above; type: cell-based; settings: ATCC10536, Brain hearth bouillon, 24 hours, 37° C.
Experimental: as §1, with “The” for “O-methyl derivatives of azithromycin A of the formulae (Ii)-(Il) and their pharmaceutically acceptable addition salts have a potent antimicrobial activity. The”

[14] = tested on: Bacillus cereus NCTC 10320; assay: Antibacterial in vitro activity in comparison with azithromycin (Table 3); type: cell-based; settings: NCTC10320, Brain hearth Bouillon, 24-48 hours, 37° C., inoculum 10^-5 -10^-6 cfu/mL
From the text: as §6

ATCC 8043 = assay: as above; type: cell-based; settings: Staphylococcus faecalis, ATCC8043; Brain hearth Bouillon, 24-48 hours, 37° C., inoculum 10^-5 -10^-6 cfu/mL
From the text: as §6

ATCC 10240 = assay: as above; type: cell-based; settings: Brain hearth Bouillon, 24-48 hours, 37° C., inoculum 10^-5 -10^-6 cfu/mL
From the text: as §6

[15] = tested on: Corynebacterium xerosis NCTC 9755; assay: as above; type: cell-based; settings: NCTC9755, Brain hearth Bouillon, 24-48 hours, 37° C., inoculum 10^-5 -10^-6 cfu/mL
From the text: as §6

[16] = tested on: Pseudomonas aeruginosa NCTC 10490; assay: as above; type: cell-based; settings: NCTC10490, Brain hearth Bouillon, 24-48 hours, 37° C., inoculum 10^-5 -10^-6 cfu/mL
From the text: as §6

Sarcina lutea ATCC 9341 = assay: as above; type: cell-based; settings: for MIC: Micrococcus luteus, ATCC9341, Brain hearth Bouillon, 24-48 hours, 37° C., inoculum 10^-5 -10^-6 cfu/mL
From the text: as §6

[17] = tested on: Escherichia coli ATCC 10536; assay: as above; type: cell-based; settings: ATCC10536, Brain hearth Bouillon, 24-48 hours, 37° C., inoculum 10^-5 -10^-6 cfu/mL
From the text: as §6

[18] = tested on: Bacillus subtilis NCTC 8241; assay: as above; type: cell-based; settings: for MIC: Bacillus subtilis, NCTC8241, Brain hearth Bouillon, 24-48 hours, 37° C., inoculum 10^-5 -10^-6 cfu/mL
From the text: as §6

[19] = tested on: Staphylococcus epidermidis ATCC 12228; assay: as above; type: cell-based; settings: ATCC12228, Brain hearth Bouillon, 24-48 hours, 37° C., inoculum 10^-5 -10^-6 cfu/mL
From the text: as §6

[20] = tested on: Bacillus pumilus NCTC 8241; assay: as above; type: cell-based; settings: NCTC8241, Brain hearth Bouillon, 24-48 hours, 37° C., inoculum 10^-5 -10^-6 cfu/mL
From the text: as §6

[21] = tested on: standard bacterial strains; assay: In vitro activity on the series of standard bacterial strains (Table 3, summary); type: cell-based; settings: versus azithromycin
Experimental: In Table 3 there are represented in vitro tests of 6-O-methyl- (Ii), 6,11-di-O-methyl- (Ij), 11-O-methyl- (Ik) and 6,11,4"-tri-O-methyl-azithromycin A (II) in comparison with azithromycin. […] Namely, the majority of the investigated bacterial strains was 2 to 4 times more sensitive in comparison with the parent antibiotic.
Substrate: Brain hearth Bouillon
Incubation: 24-48 hours, 37° C.
Inocculum; 10^-5 -10^-6 cfu/mL

[22] = read-out: MBC (Minimal Bactericidal Concentration)
[23] = read-out: MIC (Minimal Inhibitory Concentration)
[24] = read-out: MBC (Minimal Bactericidal Concentation)

For CC[C@H]1OC(=O)[C@H](C)[C@@H](O[C@H]2C[C@@](C)(OC)[C@@H](O)[C@H](C)O2)[C@H](C)[C@@H](O[C@@H]2O[C@H](C)C[C@H](N(C)C)[C@H]2O)[C@](C)(OC)C[C@@H](C)CN(C)[C@H](C)[C@@H](O)[C@]1(C)O [Ii, 6-O-Methyl-azithromycin A], the “activity on the investigated strains in comparison with erythromycin A, in words” value [1] was “somewhat improved activity”, the MBC [2, 22] was 0.4 µg/mL (≈ 0.524 µM) and the MIC [2, 23] was 0.2 µg/mL (≈ 0.262 µM). For the same compound, the MBC [3, 22] was 0.4 µg/mL (≈ 0.524 µM), the MIC [3, 23] was 0.2 µg/mL (≈ 0.262 µM) and the MBC [4, 22] was > 50 µg/mL. For the same compound, the MIC [4, 23] was > 50 µg/mL, the MBC [5, 22] was 50 µg/mL (≈ 65.5 µM) and the MIC [5, 23] was 12.5 µg/mL (≈ 16.4 µM). For the same compound, the MIC (ATCC 6538P) was 0.39 µg/mL (≈ 0.511 µM), the “activity with respect to azithromycin (from MIC)” value (from here on “activity … (from MIC)”) (ATCC 6538P; printed as Micrococcus flavus ATCC 6538 P, versus azithromycin) was “four times as active” and the “Biological activity: 1 mg contains azithromycin” value [6] was 754 μg. The MBC [7, 24] was 3.1 µg/mL (≈ 4.06 µM), the MIC [7, 23] was 0.8 µg/mL (≈ 1.05 µM) and the MBC [8, 24] was 0.1 µg/mL (≈ 0.131 µM). It also gave an MIC [8, 23] of 0.05 µg/mL (≈ 0.0655 µM), an MBC [9, 24] of 0.4 µg/mL (≈ 0.524 µM) and an MIC [9, 23] of 0.05 µg/mL (≈ 0.0655 µM). The MBC [10, 24] was 0.1 µg/mL (≈ 0.131 µM), the MIC [10, 23] was 0.025 µg/mL (≈ 0.0328 µM) and the MBC [11, 24] was 0.8 µg/mL (≈ 1.05 µM). For the same compound, the MIC [11, 23] was 0.4 µg/mL (≈ 0.524 µM), the MBC [12, 24] was 0.2 µg/mL (≈ 0.262 µM) and the MIC [12, 23] was 0.05 µg/mL (≈ 0.0655 µM). It also gave an MBC (Sarcina lutea ATCC-9341; [22]) of 0.2 µg/mL (≈ 0.262 µM), an MIC (Sarcina lutea ATCC-9341; [23]) of 0.1 µg/mL (≈ 0.131 µM) and an MBC [13, 22] of 3.2 µg/mL (≈ 4.19 µM). For the same compound, the MIC [13, 23] was 1.6 µg/mL (≈ 2.1 µM), the MIC [14] was 0.78 µg/mL (≈ 1.02 µM) and the MIC (ATCC 8043) was 0.05 µg/mL (≈ 0.0655 µM). It also gave an MIC (ATCC 10240) of 0.79 µg/mL (≈ 1.04 µM), an MIC [15] of 12.5 µg/mL (≈ 16.4 µM) and an MIC [16] of 100 µg/mL (≈ 131 µM). For the same compound, the MIC (Sarcina lutea ATCC 9341) was 0.0125 µg/mL (≈ 0.0164 µM), the “activity … (from MIC)” value (Sarcina lutea ATCC 9341; Sarcina lutea ATCC 9341, versus azithromycin) was “twice as active” and the MIC [17] was 3.12 µg/mL (≈ 4.1 µM). For the same compound, the “activity … (from MIC)” value ([18]; Bacillus subtilis NCTC 8241, versus azithromycin) was “twice as active”, the MIC [18] was 0.2 µg/mL (≈ 0.262 µM) and the MIC [19] was 0.1 µg/mL (≈ 0.131 µM). The MIC [20] was 0.2 µg/mL (≈ 0.262 µM).
In the case of CC[C@H]1OC(=O)[C@H](C)[C@@H](O[C@H]2C[C@@](C)(OC)[C@@H](O)[C@H](C)O2)[C@H](C)[C@@H](O[C@@H]2O[C@H](C)C[C@H](N(C)C)[C@H]2O)[C@](C)(O)C[C@@H](C)CN(C)[C@H](C)[C@@H](OC)[C@]1(C)O [Ik, 11-O-Methyl-azithromycin A], the MIC (ATCC 6538P) is reported as 0.2 µg/mL (≈ 0.262 µM), the “activity in comparison with azithromycin, in words” value [21] is reported as “significantly higher activity” and the MIC [14] is reported as 0.1 µg/mL (≈ 0.131 µM). It also gave an MIC (ATCC 8043) of 0.05 µg/mL (≈ 0.0655 µM), an MIC (ATCC 10240) of 0.1 µg/mL (≈ 0.131 µM) and an MIC [15] of 1.56 µg/mL (≈ 2.04 µM). The MIC [16] was 25 µg/mL (≈ 32.8 µM), the MIC (Sarcina lutea ATCC 9341) was 0.0125 µg/mL (≈ 0.0164 µM) and the MIC [17] was 0.78 µg/mL (≈ 1.02 µM). The MIC [18] was 0.1 µg/mL (≈ 0.131 µM), the MIC [19] was 0.1 µg/mL (≈ 0.131 µM) and the MIC [20] was 0.05 µg/mL (≈ 0.0655 µM).
